Source: ChEMBL document CHEMBL3425399, “Progress in discovery of small-molecule modulators of protein-protein interactions via fragment screening” (Bioorg Med Chem Lett, 2015)

What was measured:
GTPase KRas = GTPase KRas (Homo sapiens, UniProt P01116); assay: Binding affinity to KRas (unknown origin)
[1] = biological target: T1, DNA repair protein RAD51 homolog 1 (Homo sapiens, UniProt Q06609); assay: Binding affinity to RAD51 (unknown origin) by isothermal calorimetry
T1 sequence (Q06609 whole entry): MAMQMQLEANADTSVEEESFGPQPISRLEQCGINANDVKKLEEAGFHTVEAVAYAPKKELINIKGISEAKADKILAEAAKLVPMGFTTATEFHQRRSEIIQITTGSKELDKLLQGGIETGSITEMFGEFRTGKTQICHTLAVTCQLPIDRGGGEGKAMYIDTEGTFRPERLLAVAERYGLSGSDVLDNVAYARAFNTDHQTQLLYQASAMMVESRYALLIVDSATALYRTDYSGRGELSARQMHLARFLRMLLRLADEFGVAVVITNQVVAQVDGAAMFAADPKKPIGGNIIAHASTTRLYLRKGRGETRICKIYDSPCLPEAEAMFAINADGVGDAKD

Hepacivirus hominis [2] = assay: Inhibition of HCV NS3 protease at 500 uM by FRET assay
Hepatitis C virus = assay: Antiviral activity against HCV by cell based viral replicon assay; assay type: functional, organism-based, Hepacivirus hominis
Hepacivirus hominis [3] = assay: Inhibition of HCV NS3 protease at 0.01 uM by FRET assay

Chain of GTPase KRas (P01116 whole entry): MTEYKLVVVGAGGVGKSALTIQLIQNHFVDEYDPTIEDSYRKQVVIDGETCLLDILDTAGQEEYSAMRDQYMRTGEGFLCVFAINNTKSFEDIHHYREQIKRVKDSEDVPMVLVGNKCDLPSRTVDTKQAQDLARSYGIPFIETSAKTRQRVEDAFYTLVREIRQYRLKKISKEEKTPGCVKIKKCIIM

Kd [1] [µM]	SMILES	further results
3	O=C(N[C@@H](Cc1c[nH]c2ccccc12)C(=O)OCCc1ccccc1)c1ccccc1	–
570	COC(=O)[C@@H](N)Cc1c[nH]c2ccccc12 [TRYPTOPHAN METHYL ESTER]	–
35	N[C@@H](Cc1c[nH]c2ccccc12)C(=O)OCCc1ccccc1	–

The next lines start with the compound.

SMILES	Kd [1] [µM]	further results
CC[C@H](C)[C@H](N)C(=O)Nc1ccc2nc(Cc3c[nH]c4ccccc34)[nH]c2c1	–	Kd (GTPase KRas): 190 µM
Cc1[nH]c2ccccc2c1Cc1nc2ccccc2[nH]1	–	Kd (GTPase KRas): 2000 µM
NCc1ccc(Oc2ccccc2)cc1	–	inhibition (Hepacivirus hominis [2]): 55%
Oc1ccc2[nH]ccc2c1	2100	–
CC[C@@H](N[C@@H](C)CC(=O)NCCN)c1ccc(Cl)c(Oc2ccccc2)c1F	–	EC50 (Hepatitis C virus): 0.008 µM; inhibition (Hepacivirus hominis [3]): 68%
O=S(=O)(NCCc1c[nH]c2ccccc12)c1cc(Br)c(Cl)s1	1.3	–
